From the supplement of paper PMC11451515

System: P12-Ichikawa
Experiment: cell viability relative to DMSO control; higher = less cytotoxic
Conditions: 48 h
Summary of the method: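 Viability values are per-plate percentages of DMSO wells, with background from cell-free wells. Library compounds in DMSO were pin-dosed, in an 11-point threefold series from 47 μM to 0.79 nM, onto NOMO1 or SEM (500 cells/well) or P12-Ichikawa (1000 cells/well) leukemia cells in 1536-well plates (5 μl). Those cells had been adapted for at least four passages in each medium, and CellTiter-Glo One luminescence was read after 48 h at 37°C.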

[1] = HPLM + 10% dialyzed FBS, 0.000781 µM
[2] = HPLM + 10% dialyzed FBS, 0.00234 µM
[3] = HPLM + 10% dialyzed FBS, 0.00702 µM
[4] = HPLM + 10% dialyzed FBS, 0.0211 µM
[5] = HPLM + 10% dialyzed FBS, 0.0632 µM
[6] = HPLM + 10% dialyzed FBS, 0.19 µM
[7] = HPLM + 10% dialyzed FBS, 0.569 µM
[8] = HPLM + 10% dialyzed FBS, 1.71 µM
[9] = HPLM + 10% dialyzed FBS, 5.12 µM
[10] = HPLM + 10% dialyzed FBS, 15.4 µM
[11] = HPLM + 10% dialyzed FBS, 46.1 µM
[12] = RPMI 5 mM glucose + 10% FBS, 0.000781 µM
[13] = RPMI 5 mM glucose + 10% FBS, 0.00234 µM
[14] = RPMI 5 mM glucose + 10% FBS, 0.00702 µM
[15] = RPMI 5 mM glucose + 10% FBS, 0.0211 µM
[16] = RPMI 5 mM glucose + 10% FBS, 0.0632 µM
[17] = RPMI 5 mM glucose + 10% FBS, 0.19 µM
[18] = RPMI 5 mM glucose + 10% FBS, 0.569 µM
[19] = RPMI 5 mM glucose + 10% FBS, 1.71 µM
[20] = RPMI 5 mM glucose + 10% FBS, 5.12 µM
[21] = RPMI 5 mM glucose + 10% FBS, 15.4 µM
[22] = RPMI 5 mM glucose + 10% FBS, 46.1 µM
[23] = RPMI 5 mM glucose + 10% dialyzed FBS, 0.000781 µM
[24] = RPMI 5 mM glucose + 10% dialyzed FBS, 0.00234 µM
[25] = RPMI 5 mM glucose + 10% dialyzed FBS, 0.00702 µM
[26] = RPMI 5 mM glucose + 10% dialyzed FBS, 0.0211 µM
[27] = RPMI 5 mM glucose + 10% dialyzed FBS, 0.0632 µM
[28] = RPMI 5 mM glucose + 10% dialyzed FBS, 0.19 µM
[29] = RPMI 5 mM glucose + 10% dialyzed FBS, 0.569 µM
[30] = RPMI 5 mM glucose + 10% dialyzed FBS, 1.71 µM
[31] = RPMI 5 mM glucose + 10% dialyzed FBS, 5.12 µM
[32] = RPMI 5 mM glucose + 10% dialyzed FBS, 15.4 µM
[33] = RPMI 5 mM glucose + 10% dialyzed FBS, 46.1 µM

Row | SMILES | cell viability [1] [%] | cell viability [2] [%] | cell viability [3] [%] | cell viability [4] [%] | cell viability [5] [%] | cell viability [6] [%] | cell viability [7] [%] | cell viability [8] [%] | cell viability [9] [%] | cell viability [10] [%] | cell viability [11] [%] | cell viability [12] [%] | cell viability [13] [%] | cell viability [14] [%] | cell viability [15] [%] | cell viability [16] [%] | cell viability [17] [%] | cell viability [18] [%] | cell viability [19] [%] | cell viability [20] [%] | cell viability [21] [%] | cell viability [22] [%] | cell viability [23] [%] | cell viability [24] [%] | cell viability [25] [%] | cell viability [26] [%] | cell viability [27] [%] | cell viability [28] [%] | cell viability [29] [%] | cell viability [30] [%] | cell viability [31] [%] | cell viability [32] [%] | cell viability [33] [%]
1 | Clc1cc(Cl)cc(CNc2ncncc2-c2ccc3c(c2)OCO3)c1 | 93.7 | 93.6 | 92.6 | 97.4 | 100 | 90.3 | 93.8 | 97.5 | 92.6 | 94 | 10.4 | 97.6 | 92.7 | 91.3 | 93.8 | 96.3 | 93.1 | 86.6 | 94.2 | 89.9 | 86 | 47.2 | 87.6 | 96.6 | 102 | 96.1 | 95.1 | 91.7 | 92.7 | 102 | 97.9 | 99 | 61.1
2 | ClC1=CC(=CC=C1)N2CCN(CCCN3\N=C4\C=C/C=C\N4C3=O)CC2 | 118 | 120 | 120 | 134 | 128 | 132 | 134 | 142 | 140 | 134 | 139 | – | – | – | – | – | – | – | – | – | – | – | – | – | – | – | – | – | – | – | – | – | –
3 | CCc1c(C(=O)C(N)=O)c2c(OCC(=O)O)cccc2n1Cc1ccccc1 | 105 | 112 | 112 | 105 | 107 | 111 | 106 | 111 | 103 | 107 | 99.5 | 102 | 101 | 102 | 104 | 105 | 98.1 | 96.5 | 99.4 | 94.8 | 93.6 | 95.3 | 99.4 | 107 | 102 | 98.4 | 99.9 | 94.4 | 91.8 | 97.3 | 92.3 | 95.8 | 91.3
4 | CC(C)(C)C(=O)Oc1ccc([S+](=O)([O-])Nc2ccccc2C(=O)NCC(=O)O)cc1 | 113 | 114 | 113 | 111 | 117 | 122 | 116 | 115 | 111 | 123 | 133 | 107 | 106 | 111 | 106 | 115 | 123 | 113 | 119 | 126 | 131 | 134 | 112 | 115 | 106 | 118 | 113 | 117 | 120 | 121 | 122 | 132 | 138
5 | CC(C)[C@@H](C[S+](=O)([O-])C(C)C)N1C(=O)[C@@](C)(CC(=O)O)C[C@H](c2cccc(Cl)c2)[C@H]1c1ccc(Cl)cc1 | 109 | 103 | 108 | 106 | 113 | 71.2 | 17.2 | 14 | 15.4 | 17.7 | 15.6 | 109 | 111 | 114 | 114 | 120 | 107 | 63.3 | 50.6 | 21.7 | 11.7 | 12.1 | 119 | 117 | 120 | 123 | 122 | 112 | 81.2 | 59.7 | 25.7 | 18.1 | 21.1
6 | CN1CCC(CC1)COC2=CN=C(N=C2)C3=CC(=CC=C3)CN4/N=C(\C=C/C4=O)C5=CC(=CC=C5)C#N | 103 | 112 | 112 | 114 | 119 | 112 | 114 | 123 | 113 | 112 | 105 | 107 | 113 | 111 | 102 | 122 | 118 | 118 | 111 | 123 | 112 | 113 | 117 | 112 | 119 | 112 | 130 | 123 | 131 | 120 | 118 | 121 | 122
7 | c1cc(CN2CCCNCCNCCCNCC2)ccc1CN1CCCNCCNCCCNCC1 | 84 | 90.4 | 96.5 | 10.2 | 101 | 104 | 109 | 102 | 102 | 116 | 117 | 80.6 | 90.8 | 95.2 | 12.9 | 101 | 97.6 | 101 | 103 | 99 | 111 | 106 | 86.3 | 93.9 | 92.9 | 24.9 | 94.9 | 99.6 | 101 | 101 | 103 | 96.5 | 103
8 | C[C@@H]1CN[C@H]2[C@@H](C)[C@@]\3(CC[C@H]\4[C@@H]5C/C=C6/C[C@@H](O)CC[C@]6(C)[C@H]5CC4=C3C)O[C@@H]2C1 | – | – | – | – | – | – | – | – | – | – | – | – | – | – | – | – | – | – | – | – | – | – | 119 | 125 | 123 | 121 | 124 | 115 | 114 | 114 | 109 | 101 | 93.1
9 | CN1\C(=C(\O)C2=C(C=CS2)[S+]1([O-])=O)C(=O)NC3=CC=CC=N3 | 110 | 105 | 114 | 116 | 114 | 111 | 110 | 105 | 106 | 103 | 104 | 110 | 128 | 119 | 116 | 118 | 118 | 118 | 92.1 | 103 | 97.9 | 101 | 117 | 113 | 116 | 115 | 118 | 111 | 110 | 109 | 100 | 105 | 109
10 | COc1cc2c(Nc3ccc(Cl)c(Cl)c3F)ncnc2cc1OC[C@@H]1C[C@@H]2CN(C)C[C@@H]2C1 | 105 | 115 | 118 | 126 | 119 | 111 | 109 | 83.2 | 71.1 | 49.5 | 10.1 | – | – | – | – | – | – | – | – | – | – | – | – | – | – | – | – | – | – | – | – | – | –
11 | CC\1=C(C(=O)N(\C=C1)C2=CC=C(C=C2)C3=NC=CO3)/C4=CC5=CN=C(N)N=C5C=C4 | 105 | 114 | 111 | 108 | 115 | 111 | 109 | 117 | 105 | 110 | 91.3 | 106 | 112 | 108 | 102 | 112 | 105 | 109 | 102 | 106 | 98.6 | 80.2 | 102 | 103 | 111 | 112 | 117 | 109 | 111 | 110 | 94.2 | 105 | 79.6
12 | CCOC(=O)[C@H](CCc1ccccc1)N[C@@H](C)C(=O)N1CCC[C@H]1C(=O)O | 120 | 108 | 116 | 111 | 102 | 117 | 112 | 109 | 108 | 97.8 | 106 | 118 | 117 | 107 | 111 | 113 | 113 | 108 | 111 | 108 | 98.1 | 101 | 114 | 111 | 106 | 110 | 113 | 116 | 105 | 121 | 104 | 108 | 102
13 | OC[C@H]1O[C@H]([C@@H](F)[C@@H]1O)N2\C=C/C(=O)NC2=O | 110 | 108 | 108 | 110 | 108 | 112 | 114 | 102 | 99.6 | 98 | 94.1 | 99 | 108 | 108 | 91.6 | 97.9 | 114 | 106 | 102 | 92.1 | 102 | 106 | 109 | 93.5 | 104 | 100 | 99.4 | 97 | 105 | 96 | 93.6 | 93.5 | 88.6
14 | CC(=O)NC(CS)C(=O)O (centres undefined) | 81.9 | 82.9 | 88.7 | 88.4 | 91.3 | 86.4 | 89.3 | 87.2 | 87.3 | 18.4 | 27.5 | 75.5 | 74.2 | 81.5 | 78.2 | 81.4 | 69.5 | 83.3 | 80.4 | 88.8 | 28.6 | 62.5 | 80.4 | 80.4 | 76.4 | 82.7 | 89.7 | 79 | 84.4 | 88.8 | 77.2 | 27.8 | 45.6
15 | Cn1cc(-c2ccc3nnc(C(F)(F)c4ccc5ncccc5c4)n3n2)cn1 | 116 | 117 | 117 | 116 | 113 | 115 | 109 | 108 | 101 | 95.8 | 82.9 | 114 | 117 | 117 | 124 | 109 | 113 | 113 | 106 | 107 | 101 | 81.7 | 119 | 112 | 120 | 118 | 113 | 119 | 118 | 112 | 101 | 102 | 85.6
16 | N=C(N)NC(=O)c1nc(Cl)c(N)nc1N | 106 | 116 | 114 | 127 | 120 | 116 | 130 | 120 | 59.8 | 16.9 | 9.59 | – | – | – | – | – | – | – | – | – | – | – | 104 | 114 | 115 | 124 | 115 | 126 | 130 | 128 | 116 | 56.1 | 17.5
17 | O=C1Nc2ccc(Cl)cc2[C@@](C#CC2CC2)(C(F)(F)F)O1 | 81.8 | 91.9 | 90.5 | 90.6 | 90.2 | 91.1 | 91.1 | 92.1 | 96.2 | 95 | 80 | 78.3 | 94.4 | 78.6 | 76.2 | 85.5 | 83.1 | 91.6 | 85 | 84.5 | 85.1 | 55.4 | 73.8 | 77.7 | 80.5 | 88.6 | 80.8 | 85.1 | 78.4 | 77.7 | 79.8 | 79 | 61.8
